Consider one compound from publication PMC7852560 (Neuropsychopharmacology, 2020).

“And” between values parts separate entries of the source, which are not always exact repeats. Equal entries are not always repeated.

Data set [1] deals with Male Sprague Dawley rats. Particulars: 10 mg/kg i.p. The protocol:
Male Sprague Dawley rats (PD>63) were trained on a CAR protocol and responding following drug exposure was determined. […] Animals were trained to learn a house light (CS) as predictive of an avoidable 0.6mA scrambled foot shock (US). Each session consisted of 50 trials and animals avoided >70% of trials on the final acquisition session were tested for CAR during vehicle baseline, drug exposure, and re-emergence. In addition to CAR testing, both temperature and catalepsy were recorded in these animals (measure of potential CB1R agonism). Temperature: recorded on first day of drug exposure, prior to injection and 60-90-min. following drug exposure.

Data set [2] has as its system GluN1KD mice. Briefly: Open-field test in GluN1KD mice. The note with it: ABM300 10 mg/kg, OLA 1 mg/kg i.p., 30 min before test.
The target of data set [3] is T1, 5HT2B (Homo sapiens, UniProt P41595).
T1 construct: Eurofins Cerep
The data set can be described thus: SafetyScreen44 panel: 5HT2B. Format: binding. Particulars: 1 µM. From the text:
(§1) See https://www.eurofinsdiscoveryservices.com.

Data set [4] has as its system GluN1KD mice. Briefly: Pre-pulse inhibition in GluN1KD mice. Particulars: ABM300 10 mg/kg, OLA 1 mg/kg i.p. The class given is in vivo. As to the method:
Pre-Pulse Inhibition (PPI): PPI of the acoustic startle response was measured on day 3, via SR-LAB equipment and software from San Diego Instruments. Accelerometers were calibrated to 700±5 mV and output voltages were amplified and analyzed for voltage changes using SR Analysis (San Diego Instruments, San Diego, CA, USA), and exported as an excel file. Background white noise was maintained at 65dB. PPI was measured in a 30-min test with 80 randomized trials of: (1) 10 trials pulse alone (2) 10 trials pre-pulse alone (for each pre-pulse), (3) 10 trials pre-pulse plus pulse (for each pre-pulse), and (4) 10 trials no pulse. 5 pulse alone trials were performed before and after the 80 trials, totaling 90 trials per run. The pre-pulse (4dB, 8dB, or 16dB) was presented 100ms prior to the startle pulse […]. The inter-stimulus interval (ISI) was randomized between 5 and 20s. Experimental mice were placed in a cylindrical tube on a platform in a soundproof chamber. Mice were allowed to acclimatize in the chamber and to the background noise for 300s, followed by 5 consecutive pulse alone trials, then by 80 randomized trials (as described above) and then 5 consecutive pulse alone trials. Pre-pulse inhibition was measured as a decrease in the amplitude of startle response to a 100dB acoustic startle pulse, following each pre-pulse (4dB, 8dB and 16dB).

A short description of data set [5]: in vivo. Set-up: species or system male C57Bl/6 mice. As to the method:
Microsomal stability assays were conducted by Cyprotex Ltd (Macclesfield, UK).
Blood samples (approximately 60 µL; n=3 mice per time-point) were taken at 0.08, 0.25, 0.5, 1, 2, 4, 6 and 8 hrs. Immediately after collection of blood, brain samples were collected from the set of three mice at each time point. Plasma samples were separated by centrifugation of whole blood, while brain samples were homogenized in ice-cold phosphate buffer saline (pH 7.4). Total homogenate volume was three times the brain weight. Plasma and homogenates were stored below -70±10 °C until analysis. The extraction procedure for plasma/brain samples and the spiked plasma/brain calibration standards were identical. To a 25 µL volume of study sample (dilution factor applied to some samples) or spiked plasma/brain calibration standard, 100 µL of internal standard prepared in acetonitrile (Glipizide, 500 ng/mL) was added, except for blank where 100 µL of acetonitrile was added. […] Pharmacokinetic parameters were calculated using the non-compartmental analysis tool of Phoenix WinNonlin® (Version 7.0). Areas under the concentration time curve (AUC) values were calculated by linear trapezoidal rule.

Data set [6] concerns the target T2, 5HT1B (Rattus norvegicus, UniProt P28564).
T2 construct: Eurofins Cerep
Briefly: SafetyScreen44 panel: 5HT1B. The class given is binding. The note with it: 1 µM. As to the method: The screen assesses the selectivity of the compound on a diverse panel of targets that includes GPCRs, drug transporters, ion channels, nuclear receptors, kinases, and other non-kinase enzymes. The screen employs radioligand binding or enzyme assays for these 44 targets.
For receptor assays, binding was calculated as percent inhibition of the binding of a radioactively labeled ligand specific for each target. For enzyme assays, the inhibition effect was calculated as percent inhibition of control enzyme activity. Tests were performed in duplicate, and results are averages of those two tests. See https://www.eurofinsdiscoveryservices.com.

Data set [7] relates to NMDA. The data set can be described thus: SafetyScreen44 panel: NMDA. The class given is binding. Particulars: 1 µM.
Excerpt: as §1

Data set [8] has as its target CB1R (Homo sapiens, UniProt P21554). The data set can be described thus: cell-based. The class given is cell-based. The protocol: The cAMP BRET experiments were performed as previously described. Briefly, hCB1R HEK293 cells were transfected with 5 µg/10 cm dish of the CAMYEL biosensor using polyethylenimine. After 24 h, the cells were plated into white 96-well plates (PerkinElmer) at a density of 60,000 cells/well.
Cyclic AMP accumulation was measured using a DiscoverX HitHunter® cAMP Assay for Small Molecules (DiscoverX, Fremont, CA). hCB1R CHO cells were seeded at a density of 40,000 cells/well in 96-well white plates and grown overnight at 37 °C, 5% CO2 in a humidified incubator. […] Vehicle concentration was 1% DMSO, 0.1% BSA. Following agonist incubation, 15 µl of cAMP antibody reagent and 60 µl of working cAMP detection solution (containing 19 parts cAMP lysis buffer, 5 parts Substrate Reagent 1, 1 part Substrate Reagent 2 and 25 parts of cAMP Solution D) were added to all wells. Assay plates were incubated in the dark for 1 hr at room temperature, followed by addition of 60 µl cAMP solution A to all wells and incubation for 3 hr at room temperature in the dark. Plates were read using a GloMax Discover plate-reader (Promega, Madison, WI).

Where [9] appears, read: male, C57Bl/6, mouse, ip, 10 mg/kg.

CB1R, sequence (P21554 whole entry): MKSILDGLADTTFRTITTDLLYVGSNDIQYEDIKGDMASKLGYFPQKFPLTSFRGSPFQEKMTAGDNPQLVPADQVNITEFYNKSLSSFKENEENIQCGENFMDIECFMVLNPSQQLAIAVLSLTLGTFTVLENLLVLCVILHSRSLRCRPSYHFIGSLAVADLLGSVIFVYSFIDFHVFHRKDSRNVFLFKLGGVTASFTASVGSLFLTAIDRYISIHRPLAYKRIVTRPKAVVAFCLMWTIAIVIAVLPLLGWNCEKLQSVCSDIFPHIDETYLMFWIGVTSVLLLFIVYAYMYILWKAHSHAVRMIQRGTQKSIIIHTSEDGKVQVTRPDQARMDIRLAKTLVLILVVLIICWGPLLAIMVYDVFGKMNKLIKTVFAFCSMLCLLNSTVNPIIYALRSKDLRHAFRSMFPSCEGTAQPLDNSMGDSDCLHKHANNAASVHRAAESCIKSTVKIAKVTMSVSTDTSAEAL
T2 sequence (P28564 whole entry): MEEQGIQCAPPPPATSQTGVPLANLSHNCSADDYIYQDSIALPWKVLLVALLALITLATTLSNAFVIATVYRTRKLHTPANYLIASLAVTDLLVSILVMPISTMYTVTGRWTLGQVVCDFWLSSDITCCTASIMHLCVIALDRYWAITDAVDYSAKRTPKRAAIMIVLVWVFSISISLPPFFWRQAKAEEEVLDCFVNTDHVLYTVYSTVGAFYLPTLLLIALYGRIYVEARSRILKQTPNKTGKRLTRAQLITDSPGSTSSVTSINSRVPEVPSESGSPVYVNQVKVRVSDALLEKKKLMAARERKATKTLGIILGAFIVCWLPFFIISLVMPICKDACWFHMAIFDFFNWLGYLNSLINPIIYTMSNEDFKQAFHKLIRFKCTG
T1 sequence (P41595 whole entry): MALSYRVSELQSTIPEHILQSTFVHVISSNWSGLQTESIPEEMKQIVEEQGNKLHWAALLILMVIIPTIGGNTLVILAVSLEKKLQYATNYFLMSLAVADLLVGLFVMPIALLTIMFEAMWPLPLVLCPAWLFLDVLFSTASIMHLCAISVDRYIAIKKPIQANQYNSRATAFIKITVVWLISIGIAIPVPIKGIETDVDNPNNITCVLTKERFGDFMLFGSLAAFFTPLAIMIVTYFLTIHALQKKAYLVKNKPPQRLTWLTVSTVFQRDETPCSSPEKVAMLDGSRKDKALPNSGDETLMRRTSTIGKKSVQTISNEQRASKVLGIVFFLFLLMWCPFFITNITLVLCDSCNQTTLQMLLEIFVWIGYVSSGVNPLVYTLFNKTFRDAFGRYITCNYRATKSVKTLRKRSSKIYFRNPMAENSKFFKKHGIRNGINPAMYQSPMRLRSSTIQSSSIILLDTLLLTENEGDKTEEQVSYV

For orientation: AUC(0-t) means exposure summed from dosing to a finite time, without extrapolation to infinity. A low value points to low exposure. In general, Cmax refers to the peak of the concentration-time curve. The Tmax is the time at which the peak concentration occurs. A word on the half-life: it is how long it takes for the measured level to halve. A word on the IC50: it is the concentration at which inhibition is half-maximal. A lower IC50 goes with greater potency. Turning to `CCc1c(-c2nnc(Nc3ccccc3)o2)[nH]c2ccc(Cl)cc12` [ABM300, 5-(5-chloro-3-ethyl-1H-indol-2-yl)-N-phenyl-1,3,4-oxadiazol-2-amine], in data set [1], the catalepsy result was “did not induce catalepsy” and the “changes in body temperature” value is listed as “did not induce catalepsy, or changes in body temperature”. Moreover, in data set [2], the exaggerated stereotypic activity entry is on record as “significantly reduced”, the “novelty-induced hyperactivity (distance traveled)” value is recorded as “decreases” and the “rearing behavior (vertical exploration)” value is listed as “significantly reduced”. The “binding to 5HT2B” value in data set [3] was “did not display any significant binding”. For the same compound, in data set [4], the acoustic startle response entry is given as “did not respond” and the “sensorimotor gating deficits (PPI; 4, 8, 16 dB)” value is given as “did not respond”. Besides, the concentration at 30 min in data set [5] (male, C57Bl/6, mouse, 10 mg/kg i.p., at 30 min, read-out: brain concentration) came out at 374 ± 39 ng/mL. In data set [5] (setting [9]), the AUC(0-t) was 2050 ng·h/mL; the Cmax is 866 ng/mL and 412 ng/g. Besides, in data set [5] (male, C57Bl/6, mouse, ip, 10 mg/kg, Tmax), the Tmax was 0.5 h. This compound had an AUClast in data set [5] (mouse, ip, 10 mg/kg) of 1577.92 ng·h/g. In data set [5] (mouse, ip, 10 mg/kg i.p., male C57Bl/6 mice), this compound had a half-life of about 2 h. Also, the “binding to 5HT1B” value in data set [6] is listed as “did not display any significant binding”. In addition, the “binding to NMDA” value in data set [7] is reported as “did not display any significant binding”. Also, the IC50 in data set [8] was 379 nM and 355 nM and 380 nM.
